Laboratory results reported in patent US4160829A, “Antibacterial 1,2,4-oxadiazolylacetamido cephalosporins” (Gist-Brocades N.V., priority 1972, dated 1979).

How the values were obtained:
Past.multo. A 723 = experiment: agar serial dilution test; assay type: cell-based, Pasteurella multocida; details: Pasteurella multocida; agar serial dilution, 24 hours, 37° C.; read-out: minimal inhibitory concentration (MIC)
Bac.Subt.ATCC 6633 = experiment: agar serial dilution test; assay type: cell-based, Bacillus subtilis; details: Bacillus subtilis, ATCC6633, 24 h, agar serial dilution, 24 hours, 37° C.; read-out: minimal inhibitory concentration (MIC)
Staph.aureus A 355 [1] = experiment: agar serial dilution test; details: Staphylococcus aureus, A355, 24 h, read-out: minimal inhibitory concentration (MIC), agar serial dilution, 24 hours, 37° C.; penicillinase-producing strain
Proteus mirabilis A 1200 = experiment: protection test; assay type: in vivo; details: s.c.
Staph.aureus A 2000 [2] = experiment: micro serial dilution test; assay type: cell-based, Staphylococcus aureus; details: Staphylococcus aureus, A2000, 18 h, micro serial dilution (in brackets), about 18 hours, 30° C. or 37° C.; read-out: minimal inhibitory concentration (MIC)
[3] = blood and urine contents after intramuscular administration in rabbits; assay type: in vivo, rabbits "Nieuw Zeelander"; details: rabbit, im, intramuscular 50 mg/kg
Procedure: (d) the blood and urine contents of the above-indicated compound G and of monosodium 7-[(3-carboxymethyl-1,2,4-oxadiazol-5-yl)acetamido]-3-acetoxymethyl-3-cephem-4-carboxylate (as prepared in example 35) were determined after intramuscular administration of these compounds in an aqueous solution in rabbits, as listed below:
test animals: rabbits "Nieuw Zeelander"
Each testgroup consisted of 3 rabbits.
Vehiculum: Physiol. saline solution
Bloodsamples were taken after 1/4--1/2--1--2--4 hours Urinesamples were taken after 1--3--6--24--27 hours (in practice only the secreted amounts after 6 and 24 hours were used).
Testorganisms: Bacillus subtilis ATCC 6633 and Bacillus callidolactis E 16.
The contents of the compounds in the samples were determined microbiologically.
(Only microbiologically detected concentrations, i.e. anti-bacterially active concentrations only have been indicated and determined in relation to the original administered compound).

Salm.dubl. P 43 = experiment: agar serial dilution test; assay type: cell-based, Salmonella dublin; details: Salmonella enterica; agar serial dilution, 24 hours, 37° C.; read-out: minimal inhibitory concentration (MIC)
Staph.aureus A 355 [4] = experiment: micro serial dilution test; assay type: cell-based, Staphylococcus aureus; details: Staphylococcus aureus, A355; micro serial dilution (in brackets), about 18 hours, 30° C. or 37° C.; penicillinase-producing strain; read-out: minimal inhibitory concentration (MIC)
Salm.typh. R 172 = experiment: agar serial dilution test; assay type: cell-based; details: 24 h, read-out: minimal inhibitory concentration (MIC)
Strep. faec. L 80 = experiment: agar serial dilution test; assay type: cell-based, Streptococcus faecalis; details: Enterococcus faecalis; agar serial dilution, 24 hours, 37° C.; read-out: minimal inhibitory concentration (MIC)
[5] = tested on: Pseud.aerug. Wyeth A 1058; experiment: agar serial dilution test; assay type: cell-based; details: agar serial dilution, 24 hours, 37° C.; read-out: minimal inhibitory concentration (MIC)
Bruc. Suis A 2126 = experiment: agar serial dilution test; assay type: cell-based; details: Brucella suis, 24 h, read-out: minimal inhibitory concentration (MIC)
Prot.morg. 2241 = experiment: agar serial dilution test; assay type: cell-based; details: 24 h, agar serial dilution, 24 hours, 37° C.; read-out: minimal inhibitory concentration (MIC)
Pseud.aerug. 2396 = experiment: agar serial dilution test; assay type: cell-based; details: agar serial dilution, 24 hours, 37° C.; read-out: minimal inhibitory concentration (MIC)
Sarc. lutea ATCC 9341 = experiment: agar serial dilution test; assay type: cell-based; details: Micrococcus luteus, ATCC9341, 24 hours, 37° C., read-out: minimal inhibitory concentration (MIC)
Haem.Suis A 2096 = experiment: micro serial dilution test; assay type: cell-based; details: micro serial dilution (in brackets), about 18 hours, 30° C. or 37° C.; read-out: minimal inhibitory concentration (MIC)
Prot.mirab. L 93 = experiment: agar serial dilution test; assay type: cell-based, Proteus mirabilis; details: Proteus mirabilis; agar serial dilution, 24 hours, 37° C.; read-out: minimal inhibitory concentration (MIC)
[6] = tested on: Klebsiella pneumoniae A 265; experiment: protection test; assay type: in vivo; details: i.p.
Prot.mirab. H 3 = experiment: agar serial dilution test; assay type: cell-based, Proteus mirabilis; details: Proteus mirabilis; agar serial dilution, 24 hours, 37° C.; read-out: minimal inhibitory concentration (MIC)
Kleb.pneum. A 809 = experiment: agar serial dilution test; assay type: cell-based, Klebsiella pneumoniae; details: Klebsiella pneumoniae; agar serial dilution, 24 hours, 37° C.; read-out: minimal inhibitory concentration (MIC)
Staph.aureus A 2000 [7] = experiment: agar serial dilution test; assay type: cell-based, Staphylococcus aureus; details: Staphylococcus aureus, A2000, 24 h, agar serial dilution, 24 hours, 37° C.; read-out: minimal inhibitory concentration (MIC)
Strep.haem A 1088 = experiment: agar serial dilution test; assay type: cell-based, Streptococcus haemolyticus; details: Streptococcus, A1088, 24 hours, 37° C., read-out: minimal inhibitory concentration (MIC)

Cc1noc(CC(=O)N[C@@H]2C(=O)N3C(C(=O)O)=C(CSc4nnnn4C)CS[C@H]23)n1 [Compound G, sodium-7[(3-methyl-1,2,4-oxadiazol-5-yl)-acetamido] 3 [1-methyl-tetrazol-5-yl-mercaptomethyl] 3-cephem-4-carboxylate]
MIC (Past.multo. A 723): 1 µg/mL
MIC (Bac.Subt.ATCC 6633): 0.25 µg/mL
MIC (Staph.aureus A 355 [1]): 1 µg/mL
ED50 (Proteus mirabilis A 1200; Proteus mirabilis, A1200, sc, protection test, read-out: ED50): 8.7 mg/kg
Potency ratio (Proteus mirabilis A 1200; reference Cefalotin): 1,4
MIC (Staph.aureus A 2000 [2]): 0.6 µg/mL
concentration at 0.5 h ([3]; serum, after 1/2 hr, read-out: Serumlevel): 137000 ng/mL
concentration at 0.25 h ([3]; serum, after 1/4 hr, read-out: Serumlevel): 157000 ng/mL
concentration at 1 h ([3]; serum, after 1 hr, read-out: Serumlevel): 49000 ng/mL
concentration at 2 h ([3]; serum, after 2 hr, read-out: Serumlevel): 25000 ng/mL
concentration at 4 h ([3]; serum, after 4 hr, read-out: Serumlevel): 6700 ng/mL
dose excreted at 6 h ([3]; urine, after 6 hr, read-out: Secretion of compound in urine in % of the administered dose): 51.3%
dose excreted at 24 h ([3]; urine, after 24 hr, read-out: Secretion of compound in urine in % of the administered dose): 55.5%
MIC (Salm.dubl. P 43): 1.5 µg/mL
MIC (Staph.aureus A 355 [4]): 0.9 µg/mL
MIC (Salm.typh. R 172): 1.5 µg/mL
MIC (Strep. faec. L 80): 50 µg/mL
MIC [5]: 100 µg/mL
MIC (Bruc. Suis A 2126): 1 µg/mL
MIC (Prot.morg. 2241): 100 µg/mL
MIC (Pseud.aerug. 2396): 100 µg/mL
MIC (Sarc. lutea ATCC 9341): 0.5 µg/mL
MIC (Haem.Suis A 2096): 0.23 µg/mL
MIC (Prot.mirab. L 93): 3 µg/mL
ED50 ([6]; Klebsiella pneumoniae, A265, ip, protection test): 86 mg/kg
Potency ratio ([6]; reference Cefalotin): 1,09
MIC (Prot.mirab. H 3): 25 µg/mL
MIC (Kleb.pneum. A 809): 0.5 µg/mL
MIC (Staph.aureus A 2000 [7]): 0.75 µg/mL
MIC (Strep.haem A 1088): 0.25 µg/mL
